Measurements taken from US8759366B2, “Aminopyrimidines as SYK inhibitors” (Merck Sharp & Dohme Corp., priority 2009, dated 2014).
Read-outs that look alike come from different tables or passages of the source.

What was measured:
[1] = molecular target: recombinant human SYK (GST-hSYK fusion protein) (Homo sapiens (Human), UniProt P43405)
Text: Homogeneous Time-Resolved Fluorescence (HTRF) Assay for the Recombinant Human SYK Enzyme:

[2] = molecular target: rhSYK (Homo sapiens (Human), UniProt P43405); settings: read-out: rhSYK activity
[3] = read-out: rhSYK Activity, Table 33D
[4] = read-out: rhSYK Activity, recombinant human SYK, HTRF assay, class symbols
[5] = read-out: rhSYK Activity, Table 113C
[6] = read-out: rhSYK Activity, Table 119, HTRF assay, IC50 class symbols
[7] = read-out: rhSYK Activity, Table 33B

Row | Compound | IC50 [2] [nM] | also measured
1 | COC(=O)c1ccc(C(C)(O)c2ncc(-c3cc(C)cc(Nc4nccc(C(F)(F)F)n4)c3)s2)cc1 (stereo not drawn) [Example 33D-17] | – | IC50 [1, 3]: 100 to 1000 nM
2 | Cc1cc(Nc2nccc(C(F)(F)F)n2)cc(-c2cnc(C3(NS(=O)(=O)C(F)(F)F)COC3)s2)c1 [Example 61B-6] | – | IC50 ([1]; read-out: rhSYK activity): < 100 nM
3 | Cc1cc(Nc2nccc(OC3CCNCC3)n2)cc(-c2cnc(C3(NC(N)=O)CCC3)s2)c1 [Example 64-5] | – | IC50 ([1]; read-out: rhSYK activity): < 100 nM
4 | Cc1cc(Nc2nccc(C(C)C)n2)cc(-c2cnc(C3(O)CCCN(C(=O)c4nnnn4C)CC3)s2)c1 (stereo not drawn) [Example 54D-18] | – | IC50 [1, 4]: < 100 nM
5 | Cc1cc(Nc2nccc(C(C)C)n2)cc(-c2cnc(C3(O)CCCN(C(=O)OC(C)(C)C)CC3)s2)c1 (single isomer, unassigned) [113C-20] | – | IC50 [1, 5]: 100 to 1000 nM
6 | Cc1cc(Nc2nccc(C(F)(F)F)n2)cc(-c2cnc(C3(O)CCN(C4CC=C(C(=O)O)CC4)C3)s2)c1 (stereo not drawn) [Example 54B-33] | – | IC50 [1, 4]: < 100 nM
7 | Cc1cc(Nc2nccc(C(F)(F)F)n2)cc(-c2cnc(C3(O)CCC(C(=O)NCc4ccc(S(N)(=O)=O)cc4)CC3)s2)c1 (stereo not drawn) [Example 119-104] | – | IC50 [1, 6]: < 100 nM
8 | Cc1cc(Nc2nccc(C(F)(F)F)n2)cc(-c2cnc(C3(O)CCC(C(=O)NCCN4CCCCC4=O)CC3)s2)c1 (stereo not drawn) [Example 119-89] | – | IC50 [1, 6]: < 100 nM
9 | Cc1cc(Nc2nccc(C(F)(F)F)n2)cc(-c2cnc(C3(O)CCCN(CC(F)(F)F)CC3)s2)c1 (single isomer, unassigned) [Example 54A-85] | – | IC50 [1, 4]: < 100 nM
10 | Cc1cc(Nc2nccc(C(F)(F)F)n2)cc(-c2cnc(C3(O)CCC(NC(=O)C(CO)(CO)CO)CC3)s2)c1 (stereo not drawn) [Example 54E-34] | – | IC50 ([1]; read-out: rhSYK activity): < 100 nM
11 | Cc1cc(Nc2nccc(C(F)(F)F)n2)cc(-c2cnc(C(C)(O)c3ccc(NC(=O)CCCC(=O)O)cc3)s2)c1 (stereo not drawn) [Example 33D-15] | – | IC50 [1, 3]: < 100 nM
12 | Cc1cc(Nc2nccc(C(C)C)n2)cc(-c2cnc(C3(O)CCCN(C(=O)OC(C)(C)C)CC3)s2)c1 (single isomer, unassigned) [113C-21] | – | IC50 [1, 5]: 1000 to 10000 nM
13 | Cc1cc(Nc2nccc(C(F)(F)F)n2)cc(-c2cnc(C3(O)CCC(C)(C(N)=O)CC3)s2)c1 (stereo not drawn) [Example 117-3] | – | IC50 ([1]; read-out: rhSYK Activity, Table 117, HTRF assay, IC50 class symbols): < 100 nM
14 | Cc1cc(Nc2nccc(C(F)(F)F)n2)cc(-c2cnc(C3(O)CCC(C(=O)Nc4ccc(O)nc4)CC3)s2)c1 (stereo not drawn) [Example 119-61] | – | IC50 [1, 6]: < 100 nM
15 | Cc1cc(Nc2nccc(C(F)(F)F)n2)cc(-c2cnc(C3(O)CCCN(CC(=O)O)CC3)s2)c1 (stereo not drawn) [Example 54A-83] | – | IC50 [1, 4]: 100 to 1000 nM
16 | Cc1cc(Nc2nccc(C(F)(F)F)n2)cc(-c2cnc(C(C)(O)c3ccc(C(=O)O)cc3)s2)c1 (stereo not drawn) [Example 33D-16] | – | IC50 [1, 3]: < 100 nM
17 | COC(=O)[C@H]1CC[C@](O)(c2ncc(-c3cc(C)cc(Nc4nccc(C(F)(F)F)n4)c3)s2)CC1(C)C [Example 113A-65] | – | IC50 ([1]; read-out: rhSYK Activity, Table 113A): < 100 nM
18 | COC1CC(O)(c2ncc(-c3cc(C)cc(Nc4nccc(C(F)(F)F)n4)c3)s2)CCC1C(=O)O (stereo not drawn) [Example 33B-13] | – | IC50 [1, 7]: < 100 nM
19 | Cc1cc(Nc2nccc(C(F)(F)F)n2)cc(-c2cnc(C3(O)CCCC(c4ccc(C(=O)O)cc4)C3)s2)c1 (single isomer, unassigned) [Example 33B-16] | – | IC50 [1, 7]: < 100 nM

Row | Compound | IC50 [2] [nM] | also measured
20 | Cc1cc(Nc2nccc(C(F)(F)F)n2)cc(-c2cnc(C3(O)CC(C(=O)O)C(C)(C)C3)s2)c1 (single isomer, unassigned) [Example 33B-6] | – | IC50 [1, 7]: < 100 nM
21 | COc1ccnc(Nc2cc(C)cc(-c3cnc(C4(NC(N)=O)CCC4)s3)c2)n1 [Example 64-4] | – | IC50 ([1]; read-out: rhSYK activity): < 100 nM
22 | Cc1cc(Nc2nccc(C(C)C)n2)cc(-c2cnc(C3(O)CCCN(C(=O)c4cnnn4C)CC3)s2)c1 (stereo not drawn) [Example 54D-17] | – | IC50 [1, 4]: < 100 nM
23 | Cc1cc(Nc2nccc(C)n2)cc(-c2cnc(C3(O)CCC(C)(CC(=O)O)CC3)s2)c1 (single isomer, unassigned) [Example 4C-12] | < 100 | –
24 | FC(F)(F)c1cc(Br)cc(Nc2nccc(C(F)(F)F)n2)c1 [N-[3-bromo-5-(trifluoromethyl)phenyl]-4-(trifluoromethyl)pyrimidin-2-amine] | 1000 to 10000 | –
25 | Cc1cc(Nc2ncc(Cl)cn2)cc(-c2cncs2)c1 [Intermediate 48, 5-Chloro-N-[3-methyl-5-(1,3-thiazol-5-yl)phenyl]pyrimidin-2-amine] | 100 to 1000 | –
26 | Cc1cc(Nc2nccc(C(F)(F)F)n2)cc(-c2cnc(C3(O)CCNC(=O)CC3)s2)c1 (stereo not drawn) [Example 10, 5-Hydroxy-5-[5-(3-methyl-5-{[4-(trifluoromethyl)pyrimidin-2-yl]amino}phenyl)-1,3-thiazol-2-yl]azepan-2-one] | < 100 | –
27 | Cc1cc(Nc2nccc(C(F)(F)F)n2)cc(-c2cnc(C3(O)CCOCC3)s2)c1 [Example 4B-13] | < 100 | –
28 | Cc1cc(Nc2nccc(C(F)(F)F)n2)cc(-c2cnc(C3(O)CCN(S(N)(=O)=O)CC3)s2)c1 [Example 49, 4-hydroxy-4-[5-(3-methyl-5-{[4-(trifluoromethyl)pyrimidin-2-yl]amino}phenyl)-1,3-thiazol-2-yl]piperidine-1-sulfonamide] | < 100 | –
29 | Cc1cc(Nc2nccc(C(=O)N3CCNCC3)n2)cc(-c2cnc(C(C)(O)C(F)(F)F)s2)c1 (stereo not drawn) [Example 69, [2-({3-methyl-5-[2-(1,1,1-trifluoro-2-hydroxypropan-2-yl)-1,3-thiazol-5-yl]phenyl}amino)-pyrimidin-4-yl](piperazin-1-yl)methanone] | < 100 | –
30 | Cc1cc(Nc2nccc(C(F)(F)F)n2)cc(-c2cnc(C3(O)CC4(C(=O)O)CCC3(C)C4(C)C)s2)c1 (stereo not drawn) [Example 4B-49] | < 100 | –
31 | CC(O)(CO)c1ncc(-c2cc(F)cc(Nc3ncc(F)c(C4CC4)n3)c2)s1 (stereo not drawn) [Example 57, 2-(5-{3-[(4-cyclopropyl-5-fluoropyrimidin-2-yl)amino]-5-fluorophenyl}-1,3-thiazol-2-yl)propane-1,2-diol] | < 100 | –
32 | Cc1cc(Nc2nccc(C(F)(F)F)n2)cc(-c2cnc(C3(O)CCN(c4ccccc4F)CC3)s2)c1 [4D-11] | 100 to 1000 | –
33 | OC1(c2ncc(-c3cccc(Nc4nccc(C(F)(F)F)n4)c3)s2)CC2CCC1N2 (stereo not drawn) [Example 4B-10] | 100 to 1000 | –
34 | COC(=O)C1CC(O)(c2ncc(-c3cc(C)cc(Nc4nccc(C(F)(F)F)n4)c3)s2)CCN1C(=O)OC(C)(C)C (stereo not drawn) [4D-14] | 100 to 1000 | –
35 | CCOC(=O)C1CCC(O)(c2ncc(-c3cc(C)cc(Nc4nccc(C(F)(F)F)n4)c3)s2)C(C)C1C (stereo not drawn) [Example 4B-57] | < 100 | –
36 | Cc1cc(Nc2nccc(C(F)(F)F)n2)cc(-c2cnc(C3(O)CCC4(CC3)OCCO4)s2)c1 [Example 4B-15, 8-[5-(3-methyl-5-{[4-(trifluoromethyl)pyrimidin-2-yl]amino}phenyl)-1,3-thiazol-2-yl]-1,4-dioxaspiro[4.5]decan-8-ol] | < 100 | –
37 | CCOC(=O)C1CCC(O)(c2ncc(-c3cc(C)cc(Nc4nccc(C)n4)c3)s2)CC1c1ccc(F)cc1 (stereo not drawn) [Example 4C-28] | 100 to 1000 | –

Continued, in another order:

Row | IC50 [2] [nM] | Compound | also measured
38 | < 100 | Cc1cc(Nc2nccc(C(F)(F)F)n2)cc(-c2cnc(C3(O)CCC(N(C)C)CC3)s2)c1 (stereo not drawn) [Example 4C-33] | –
39 | 100 to 1000 | Cc1cc(Nc2nccc(C(F)(F)F)n2)cc(-c2cnc(C3CCC3)s2)c1 [13-1] | –
40 | < 100 | CC(C)(c1ncc(-c2cc(N)cc(Nc3nccc(C(F)(F)F)n3)c2)s1)S(N)(=O)=O [Example 71, 2-[5-(3-amino-5-{[4-(trifluoromethyl)pyrimidin-2-yl]amino}phenyl)-1,3-thiazol-2-yl]propane-2-sulfonamide] | –
41 | 100 to 1000 | FC(F)(F)c1ccnc(Nc2cccc(-c3cncs3)c2)n1 [Intermediate 7, N-[3-(1,3-thiazol-5-yl)phenyl]-4-(trifluoromethyl)pyrimidin-2-amine] | –
42 | < 100 | COC(=O)[C@H](C)Cc1ncc(-c2cc(C)cc(Nc3nccc(C(F)(F)F)n3)c2)s1 [Example 76, Methyl (2R)-2-methyl-3-[5-(3-methyl-5-{[4-(trifluoromethyl)pyrimidin-2-yl]amino}phenyl)-1,3-thiazol-2-yl]propanoate] | –
43 | 1000 to 10000 | OC1(c2ncc(-c3cccc(Nc4nccc(C(F)(F)F)n4)c3)s2)CCN(c2ccc(F)cc2)C1 (stereo not drawn) [4D-2] | –
44 | < 100 | Cc1cc(Nc2nccc(C(F)(F)F)n2)cc(-c2cnc(CS(N)(=O)=O)s2)c1 [Example 75, 1-[5-(3-methyl-5-{[4-(trifluoromethyl)pyrimidin-2-yl]amino}phenyl)-1,3-thiazol-2-yl]methanesulfonamide] | –
45 | < 100 | Cc1cc(Nc2nccc(C(F)(F)F)n2)cc(-c2cnc(C(O)C(F)(F)F)s2)c1 (stereo not drawn) [Example 6, 2,2,2-trifluoro-1-[5-(3-methyl-5-{[4-(trifluoromethyl)pyrimidin-2-yl]amino}phenyl)-1,3-thiazol-2-yl]ethanol] | –
46 | < 100 | CC(C)(O)c1ncc(-c2cc(Br)cc(Nc3nccc(C(F)(F)F)n3)c2)s1 [Example 4A-4, 2-[5-(3-bromo-5-{[4-(trifluoromethyl)pyrimidin-2-yl]amino}phenyl)-1,3-thiazol-2-yl]propan-2-ol] | –
47 | 1000 to 10000 | CC1(C)CC(O)(c2ncc(-c3cccc(Nc4nccc(C(F)(F)F)n4)c3)s2)CC(C)(C)S1 [Example 4B-8] | –
48 | < 100 | OC1(c2ncc(-c3cccc(Nc4nccc(C(F)(F)F)n4)c3)s2)CCN(C2CC2)CC1 [4D-3] | –
49 | < 100 | CCc1cc(Nc2nccc(C(F)(F)F)n2)cc(-c2cnc(C(C)(C)O)s2)c1 [Example 30, 2-[5-(3-ethyl-5-{[4-(trifluoromethyl)pyrimidin-2-yl]amino}phenyl)-1,3-thiazol-2-yl]propan-2-ol] | –
50 | < 100 | O=C(c1ncc(-c2cccc(Nc3nccc(C(F)(F)F)n3)c2)s1)C1CC1 [Example 11, Cyclopropyl[5-(3-{[4-(trifluoromethyl)pyrimidin-2-yl]amino}phenyl)-1,3-thiazol-2-yl]methanone] | –
51 | < 100 | Cc1cc(Nc2nccc(C(F)(F)F)n2)cc(-c2cnc(C3(NC(N)=O)CCC3)s2)c1 [Example 64, 1-{1-[5-(3-methyl-5-{[4-(trifluoromethyl)pyrimidin-2-yl]amino}phenyl)-1,3-thiazol-2-yl]cyclobutyl}urea] | –
